Laboratory results as given in ChEMBL document CHEMBL1147168, “Quinuclidines as selective agonists for alpha-7 nicotinic acetylcholine receptors” (Bioorg Med Chem Lett, 2007).

Molecular target: Neuronal acetylcholine receptor subunit alpha-7 (Homo sapiens, UniProt P36544)
Assay: Agonist activity at nAChR alpha-7 expressed in Xenopus oocytes
Assay type: functional, cell-based, Oocyte

Sequence of Neuronal acetylcholine receptor subunit alpha-7 (P36544 whole entry): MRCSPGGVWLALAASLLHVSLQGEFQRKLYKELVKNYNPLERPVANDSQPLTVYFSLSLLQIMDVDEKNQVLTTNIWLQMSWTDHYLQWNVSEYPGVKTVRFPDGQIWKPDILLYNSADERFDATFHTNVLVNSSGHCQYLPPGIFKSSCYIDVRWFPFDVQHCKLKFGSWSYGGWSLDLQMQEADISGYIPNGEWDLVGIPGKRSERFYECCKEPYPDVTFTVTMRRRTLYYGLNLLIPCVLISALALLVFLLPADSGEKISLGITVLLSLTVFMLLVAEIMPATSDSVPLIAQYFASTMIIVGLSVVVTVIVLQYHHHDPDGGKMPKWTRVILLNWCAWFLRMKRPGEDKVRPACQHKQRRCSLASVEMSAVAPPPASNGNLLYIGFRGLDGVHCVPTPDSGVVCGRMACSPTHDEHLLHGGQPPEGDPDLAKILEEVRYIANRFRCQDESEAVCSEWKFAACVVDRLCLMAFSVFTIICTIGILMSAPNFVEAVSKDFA

Compound | EC50 [µM]
C(=C1\CN2CCC1CC2)/c1ccccc1 | 1.5
COc1ccc(/C=C2/CN3CCC2CC3)cc1 | 1.3
